Consider seven compounds from patent publication US20230094545A1, “S1P RECEPTOR MODULATORS” (AKAAL PHARMA PTY LTD, priority 2020, published 2023).

For series [1] the following is noted: cited from earlier work.
Series [2] concerns the target T1, S1P1 receptor (Homo sapiens, UniProt P21453). The settings on record: cited from earlier work; for activity v/s degradation margin: known S1P receptor modulators; for receptor degradation ability: Lucas et al.
For the next series, the system named is EAE. The experiment in a line: Animal model of multiple sclerosis (EAE induced with guinea pig MBP). It counts as in vivo, Lewis rats. The settings on record: EAE rats, oral every day until day 26. How it is done: The oral treatment with a compound of formula (I) was conducted in an animal model of multiple sclerosis. EAE was induced in female Lewis rats with guinea pig MBP (25 μg/rat).

The conditions of series [3]: single dose, 2 mg or lower doses; cited from earlier work.
The target of series [4] is T1, S1P1 receptor. The settings on record: Lucas et al; read-out: EC50 at S1P1 receptor in a GTPγS assay; cited from earlier work.
A short description of series [5]: Solubility in water / precipitation in buffer. It counts as physicochemical. The method, then:
To solubilize the free base in water the novel technology AvignaSOL (N,N-Dimethyl hexanamide; patent number: U.S. Pat. No. 9,186,338B2) and its higher derivatives such as octinamide, decamide which improve the absorption of various poorly soluble drugs was used. AvignaSOL as 1-70% ww % assisted the solubilization of free base as 1 gm/20 mL of water. The solubility of free base in water assisted its direct use in various formulation such as creams, gels, solutions which together with the permeation enhancing effect will be harnessed to improve skin penetration and/or bioavailability and in altering the pharmacokinetics and pharmacodynamics profile of free base.
The AvignaSOL having a log P of ˜1.6 hinder the release by increasing the hydrophobicity of the delivery system. […] The combination of compound of formula I with other ingredients including sustained release enhancer with or without AvignaSOL were prepared as novel formulation techniques to improve and/or alter the pharmacokinetics and pharmacodynamics profile of compound of Formula I.

SMILES strings stand for the structures. Bounds are passed on as bounds.

T1 sequence (P21453 whole entry): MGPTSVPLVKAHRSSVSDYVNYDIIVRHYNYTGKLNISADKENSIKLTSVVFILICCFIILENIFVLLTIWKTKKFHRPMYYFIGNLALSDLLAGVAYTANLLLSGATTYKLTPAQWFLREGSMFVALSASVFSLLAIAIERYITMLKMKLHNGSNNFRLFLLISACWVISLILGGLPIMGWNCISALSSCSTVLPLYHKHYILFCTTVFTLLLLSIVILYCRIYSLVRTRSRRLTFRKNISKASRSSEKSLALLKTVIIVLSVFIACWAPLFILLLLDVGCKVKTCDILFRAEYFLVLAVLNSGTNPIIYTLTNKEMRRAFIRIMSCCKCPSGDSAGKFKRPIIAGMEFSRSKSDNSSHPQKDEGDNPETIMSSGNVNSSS

One may read the log P as the decadic logarithm of the partition coefficient of the neutral form, usually between octanol and water. Turning to `CCCCCC(=O)N(C)C` [AvignaSOL, N,N-Dimethyl hexanamide], the lipophilicity (log P) in series [1] is on record as approximately 1.6.

On to `CCc1cc(/C(C)=N/OCc2ccc(C3CCCCC3)c(C(F)(F)F)c2)ccc1CN1CC(C(=O)O)C1` [BAF-312], for which the “activity v/s degradation margin” value on S1P1 receptor [2] is 2.95.

On to `CCCCCCCCc1ccc(CCC(N)(CO)CO)cc1` [FTY720], for which, at S1P1 receptor [2], the receptor degradation ability is on record as 0.34 nM and the “activity v/s degradation margin” value is 0.17. For the same compound, the lymphopenia result with EAE is reported as “induced at a high level over a long-term period”.

With `CC(C)Oc1ncc(-c2nc(-c3cccc4c3ccn4CCCC(=O)O)no2)cc1Cl` [GSK2018682], in series [3], the lymphopenia entry was “minimal or no lymphopenia” and the “reduction in heart rate” value is on record as not below 10 beats.

For the compound `CCC/N=C1\S/C(=C\c2ccc(OC[C@H](O)CO)c(Cl)c2)C(=O)N1c1ccccc1C` [Ponesimod], on S1P1 receptor [2], the “activity v/s degradation margin” value is listed as less than 2.

For orientation: EC50 means the concentration that produces a half-maximal response. In the case of `CCCCCCCCCCCCC/C=C/[C@@H](O)[C@@H](N)COP(=O)(O)O` [S1P], the EC50 at S1P1 receptor [4] is 1.2 nM. For the same compound, the receptor degradation ability at S1P1 receptor [2] was 302 nM.

`CCCOc1ccc(-c2nc(-c3ccc4oc(C(N)(CO)CO)cc4c3)no2)cc1Cl` [compound of formula I free base]: in series [5], the solubility in water entry is listed as “insoluble in water”.
